From ChEMBL document CHEMBL1221224, “Inhibition of Wnt signaling by Dishevelled PDZ peptides” (Nat Chem Biol, 2009)
Values belong to the compound of their own block, whether it stands above or below them. Activity calls are given as the source filed them. The calls are words filed in the database; no cut-off is given here. Where a SMILES comes first, the peptide text is derived from it.

What was measured:
[1] = Inhibition of Dvl mediated Wnt3a/TCF signaling in human HEK293S cells after 18 hrs by TOPglow reporter assay
[2] = Cytotoxicity in human HEK293S cells assessed as cell viability at 300 uM after 18 hrs by differential interference contrast microscopy; assay type: cell-based
[3] = Cytotoxicity in human HEK293S cells assessed as cell viability at 100 uM after 18 hrs by differential interference contrast microscopy; assay type: cell-based
[4] = target: T1, Segment polarity protein dishevelled homolog DVL-2 (Homo sapiens) (UniProt O14641); test: (§1) Binding affinity at Dvl2 PDZ domain after 15 mins by fluorescence polarization assay
T1 sequence (whole entry): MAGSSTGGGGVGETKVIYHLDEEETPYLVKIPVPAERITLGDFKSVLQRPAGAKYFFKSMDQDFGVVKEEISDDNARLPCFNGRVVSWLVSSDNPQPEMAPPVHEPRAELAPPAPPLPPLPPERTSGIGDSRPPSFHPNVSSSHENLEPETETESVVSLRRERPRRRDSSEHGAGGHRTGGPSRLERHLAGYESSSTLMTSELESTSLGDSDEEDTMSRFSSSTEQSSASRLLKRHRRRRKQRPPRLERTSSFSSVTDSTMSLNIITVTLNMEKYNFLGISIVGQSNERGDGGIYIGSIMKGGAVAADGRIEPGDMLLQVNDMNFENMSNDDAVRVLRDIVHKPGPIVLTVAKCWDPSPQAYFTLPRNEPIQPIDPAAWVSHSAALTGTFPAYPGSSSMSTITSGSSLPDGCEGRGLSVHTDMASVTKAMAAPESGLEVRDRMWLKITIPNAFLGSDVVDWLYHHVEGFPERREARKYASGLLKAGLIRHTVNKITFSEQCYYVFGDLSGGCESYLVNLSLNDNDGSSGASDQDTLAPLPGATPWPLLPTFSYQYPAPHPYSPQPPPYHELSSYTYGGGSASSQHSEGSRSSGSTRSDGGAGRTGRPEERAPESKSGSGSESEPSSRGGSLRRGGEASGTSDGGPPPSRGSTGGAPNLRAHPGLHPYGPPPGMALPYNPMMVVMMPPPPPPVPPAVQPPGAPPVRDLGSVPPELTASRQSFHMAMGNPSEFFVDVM

[5] = target: T2, Segment polarity protein dishevelled homolog DVL-2 (Homo sapiens, UniProt O14641); test: as §1
T2 sequence (O14641 whole entry): T1 sequence (whole entry)

[6] = target: T3, Segment polarity protein dishevelled homolog DVL-3 (Homo sapiens) (UniProt Q92997); test: Inhibition of Dvl3 overexpressed in human HEK293S assessed as inhibition of […]/TCF reporter signaling at 20 uM after 18 hrs by TOPglow reporter assay
T3 sequence (whole entry): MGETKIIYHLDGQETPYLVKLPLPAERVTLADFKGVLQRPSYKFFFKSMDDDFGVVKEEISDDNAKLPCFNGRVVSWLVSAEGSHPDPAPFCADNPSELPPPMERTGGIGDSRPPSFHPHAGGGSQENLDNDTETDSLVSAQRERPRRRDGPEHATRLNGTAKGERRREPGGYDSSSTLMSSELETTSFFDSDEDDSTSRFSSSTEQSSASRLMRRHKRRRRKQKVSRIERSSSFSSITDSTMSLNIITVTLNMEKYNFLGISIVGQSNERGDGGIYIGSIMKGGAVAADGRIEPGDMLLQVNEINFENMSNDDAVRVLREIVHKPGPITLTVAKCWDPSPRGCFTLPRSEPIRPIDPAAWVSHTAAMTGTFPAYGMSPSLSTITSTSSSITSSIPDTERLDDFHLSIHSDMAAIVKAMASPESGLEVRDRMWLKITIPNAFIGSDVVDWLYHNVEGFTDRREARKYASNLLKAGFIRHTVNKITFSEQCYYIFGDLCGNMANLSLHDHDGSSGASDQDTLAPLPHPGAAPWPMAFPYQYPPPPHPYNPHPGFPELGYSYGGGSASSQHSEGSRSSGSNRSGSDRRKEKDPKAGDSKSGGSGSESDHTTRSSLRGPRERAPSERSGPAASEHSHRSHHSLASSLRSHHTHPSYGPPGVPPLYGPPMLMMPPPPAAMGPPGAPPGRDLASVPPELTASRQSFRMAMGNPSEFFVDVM

[7] = target: T4, Catenin beta-1 (Homo sapiens) (UniProt P35222); test: Inhibition of […] mediated […]/TCF reporter signaling in human HEK293S at 20 uM after 18 hrs by TOPglow reporter assay; assay type: functional
T4 sequence (whole entry): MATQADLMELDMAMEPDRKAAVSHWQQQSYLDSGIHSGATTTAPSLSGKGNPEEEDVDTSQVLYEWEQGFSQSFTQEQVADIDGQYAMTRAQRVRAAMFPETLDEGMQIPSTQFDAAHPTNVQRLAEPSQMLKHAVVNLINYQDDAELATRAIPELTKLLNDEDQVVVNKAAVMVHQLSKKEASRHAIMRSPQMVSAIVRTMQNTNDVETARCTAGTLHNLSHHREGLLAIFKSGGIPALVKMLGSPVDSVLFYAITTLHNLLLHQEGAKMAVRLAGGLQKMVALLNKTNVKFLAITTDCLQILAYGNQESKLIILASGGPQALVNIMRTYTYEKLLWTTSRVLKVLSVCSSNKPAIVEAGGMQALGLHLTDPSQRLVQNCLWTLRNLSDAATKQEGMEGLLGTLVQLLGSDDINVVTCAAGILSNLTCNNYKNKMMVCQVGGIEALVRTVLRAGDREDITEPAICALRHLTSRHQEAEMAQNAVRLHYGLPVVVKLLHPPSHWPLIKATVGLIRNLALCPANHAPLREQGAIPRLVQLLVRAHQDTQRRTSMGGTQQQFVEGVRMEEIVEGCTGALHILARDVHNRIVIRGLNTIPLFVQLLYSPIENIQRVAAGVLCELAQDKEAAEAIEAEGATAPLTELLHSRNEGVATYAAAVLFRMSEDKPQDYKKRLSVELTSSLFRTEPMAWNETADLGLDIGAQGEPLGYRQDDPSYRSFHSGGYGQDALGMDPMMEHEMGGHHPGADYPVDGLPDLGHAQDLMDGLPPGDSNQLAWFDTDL

[8] = target: T3, Segment polarity protein dishevelled homolog DVL-3 (Homo sapiens); test: Binding affinity at Dvl3 in human HEK293S lysate after 15 mins by pulldown and Western blot assays
HEK293 = test: Inhibition of Dvl mediated Wnt3a signaling in human HEK293 cells assessed as […] accumulation at 10 uM after 18 hrs by Western blot method; assay type: cell-based
[9] = Drug uptake in human HEK293S cells after 1 hr by time-lapse microscopy; assay type: ADME, cell-based
[10] = Cytotoxicity in human HEK293S cells assessed as cell viability at 33 uM after 18 hrs by differential interference contrast microscopy; assay type: cell-based
HCT-15 = test: Inhibition of Dvl mediated Wnt/TCF signaling in human HCT15 after 18 hrs by TOPglow reporter assay; assay type: cell-based
[11] = target: T5, Segment polarity protein dishevelled homolog DVL-1 (Homo sapiens) (UniProt O14640); test: Inhibition of Dvl1 overexpressed in human HEK293S assessed as inhibition of […]/TCF reporter signaling at 20 uM after 18 hrs by TOPglow reporter assay
T5 sequence (whole entry): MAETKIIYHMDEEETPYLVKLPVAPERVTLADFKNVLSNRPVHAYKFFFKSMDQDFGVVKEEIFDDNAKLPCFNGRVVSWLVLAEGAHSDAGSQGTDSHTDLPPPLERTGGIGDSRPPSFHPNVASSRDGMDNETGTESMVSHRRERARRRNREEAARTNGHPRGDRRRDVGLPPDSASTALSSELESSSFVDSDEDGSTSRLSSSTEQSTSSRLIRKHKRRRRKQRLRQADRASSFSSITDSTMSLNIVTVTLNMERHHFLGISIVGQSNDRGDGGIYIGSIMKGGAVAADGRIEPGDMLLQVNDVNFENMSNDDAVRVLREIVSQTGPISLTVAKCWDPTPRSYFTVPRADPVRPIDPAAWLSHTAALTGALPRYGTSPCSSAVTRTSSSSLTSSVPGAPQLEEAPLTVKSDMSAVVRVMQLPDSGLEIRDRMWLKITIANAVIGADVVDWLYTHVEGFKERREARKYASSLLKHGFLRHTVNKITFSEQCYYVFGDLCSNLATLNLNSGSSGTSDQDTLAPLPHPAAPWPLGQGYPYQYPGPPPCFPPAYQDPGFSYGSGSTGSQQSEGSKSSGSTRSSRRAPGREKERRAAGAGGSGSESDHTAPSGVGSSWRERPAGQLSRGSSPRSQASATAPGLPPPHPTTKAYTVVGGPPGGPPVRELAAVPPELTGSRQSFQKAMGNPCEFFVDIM

[12] = target: T1, Segment polarity protein dishevelled homolog DVL-2 (Homo sapiens); test: Inhibition of Dvl2 overexpressed in human HEK293S assessed as inhibition of […]/TCF reporter signaling at 20 uM after 18 hrs by TOPglow reporter assay

Compound: CCCCC(O)c1[nH]c2cc(C)c(C(=O)O)cc2c1CCc1ccccc1 (configuration not stated)
IC50 [1]: > 100 µM
Activity [2]: Toxic
Activity [3]: Toxic

Compound: NCCCC[C@H](NC(=O)[C@@H](N)Cc1c[nH]c2ccccc12)C(=O)N[C@@H](Cc1c[nH]c2ccccc12)C(=O)N[C@@H](Cc1ccc(O)cc1)C(=O)NCC(=O)N[C@@H](Cc1c[nH]c2ccccc12)C(=O)N[C@@H](Cc1ccccc1)C(=O)O (H-WKWYGWF-OH)
Ki [5]: 0.7 µM

Compound: CC[C@H](C)[C@H](NC(=O)[C@H](CCCCN)NC(=O)[C@@H](NC(=O)[C@H](CCC(N)=O)NC(=O)[C@H](CCCNC(=N)N)NC(C)=O)[C@@H](C)CC)C(=O)N[C@@H](Cc1c[nH]c2ccccc12)C(=O)N[C@@H](Cc1ccccc1)C(=O)N[C@@H](CCC(N)=O)C(=O)N[C@@H](CC(N)=O)C(=O)N[C@@H](CCCNC(=N)N)C(=O)N[C@@H](CCCNC(=N)N)C(=O)N[C@@H](CCSC)C(=O)N[C@@H](CCCCN)C(=O)N[C@@H](Cc1c[nH]c2ccccc12)C(=O)N[C@@H](CCCCN)C(=O)N[C@@H](CCCCN)C(=O)NCC(=O)NCC(=O)NCC(=O)N[C@@H](CCC(=O)O)C(=O)N[C@H](C(=O)N[C@H](C(=O)N[C@@H](CC(C)C)C(=O)N[C@@H](Cc1c[nH]c2ccccc12)C(=O)N[C@@H](CO)C(=O)N[C@@H](CC(=O)O)C(=O)N[C@H](C(=O)N1CCC[C@H]1C(N)=O)[C@@H](C)CC)C(C)C)[C@@H](C)CC
inhibition [6]: Active
inhibition [7]: inactive
Activity [8]: Active
inhibition (HEK293): Active
IC50 [1]: 11 µM
Drug uptake [9]: Active
Activity [10]: Non-toxic
inhibition (HCT-15): inactive
inhibition [11]: Active
inhibition [12]: Active

Continued, values first:

Activity [4]: Active
Compound: CC[C@H](C)[C@H](NC(=O)[C@H](Cc1c[nH]c2ccccc12)NC(=O)[C@@H](NC(=O)[C@H](CCC(=O)O)NC(=O)[C@H](CC(N)=O)NC(=O)CNC(=O)[C@@H](N)CO)C(C)C)C(=O)N[C@@H](CC(=O)O)C(=O)NCC(=O)N1CCC[C@H]1C(=O)O (H-SGNEVWIDGP-OH)

Ki [5]: 4.6 µM
Compound: CC[C@H](C)[C@H](NC(=O)[C@H](CC(=O)O)NC(=O)[C@H](CO)NC(=O)[C@H](Cc1c[nH]c2ccccc12)NC(=O)[C@H](CC(C)C)NC(=O)[C@@H](NC(=O)[C@@H](NC(=O)[C@H](CCC(=O)O)NC(=O)CN)[C@@H](C)CC)C(C)C)C(=O)O (H-GEIVLWSDI-OH)

Ki [5]: 1.2 µM
Compound: CC[C@H](C)[C@H](NC(=O)[C@H](Cc1c[nH]c2ccccc12)NC(=O)CNC(=O)[C@H](Cc1ccc(O)cc1)NC(=O)[C@H](CC(=O)O)NC(=O)[C@H](CCCCN)NC(=O)[C@@H](N)Cc1c[nH]c2ccccc12)C(=O)N[C@@H](CC(=O)O)C(=O)O (H-WKDYGWID-OH)
